# Patent US5866775A, “Glyphosate-tolerant 5-enolpyruvyl-3-phosphoshikimate synthases” (Monsanto Company, priority 1990, dated 1999)
# Molecular target: T1, pMON8252 encoded petunia EPSPS variant, glycine (101) to alanine and alanine (192) to threonine (Petunia hybrida, UniProt P11043, A264T/G173A)
# T1 construct: alanine 192 in the mature petunia EPSP synthase; made in house; host or cells: E. coli SR481 (aroA-)
# Assay: EPSP synthase kinetic constants (appKm PEP, appKi glyphosate)
# Type: biochemical
# Details: extract of SR481 cells with pMON8252
# Description: The balance of the #742 preculture (~750 μl) was used to inoculate 2 ml of 2XYT medium containing 50 μg/ml carbenicillin and was shaken overnight at 37° C. to reach saturation. Plasmid DNA was isolated from an aliquot of the saturated culture using an alkaline lysis procedure. The plasmid was designated pMON8252. An aliquot of the pMON8252 plasmid was used to transform the E. coli host SR481 (described above) and reselected on MOPS medium containing 10 mM glyphosate and 50 μg/ml carbenicillin. A single glyphosate resistant colony of pMON8252 was picked off the selection plate and used to inoculate 3 ml of 2XY1 bacterial medium containing 50 μg/ml carbenicillin. The culture was then aerated on a rotating wheel at 37° C. until saturated and then used to inoculate a larger 250 ml culture. The large culture was grown to saturation by continuously shaking it overnight at 37° C. in a water bath. The bacterial cells were lysed and the extracts were assayed for EPSPS activity.
# Specifically, the bacterial cell paste was washed twice with 0.9% saline, suspended in buffer (100 mM Tris-HCl, 5 mM benzamidine HCl) and passed twice through a French Pressure Cell at 1000 psi. The cell extract was separated from the cells by centrifuging at 15,000×gravity for 10 minutes at 5° C. It was desalted using Sephadex G-50 (Pharmacia, Piscataway, N.J.). The desalted extract was assayed for EPSP synthase activity as follows.
# Kinetic constants (appKm PEP and appKi glyphosate) were determined for EPSP synthase as described below. Substrate kinetic parameters were determined at pH 7.9 in 50 mM HEPES (N-[2-hydroxyethyl]piperazine-N'-[2-ethanesulfonic acid]) buffer in the presence of 2 mM S3P and varying amounts of ^14 C-PEP (10 μM-400 μM), for 2.0 minutes at 25° C. Reactions were quenched with 100 mM NaAcetate in ethanol, pH 4.5, centrifuged and analyzed for product EPSP formation by HPLC with flow radioactivity detection. HPLC conditions were 0.35M KPi, pH 6.5, on a Synchropak AX100 column at 1.0 ml/minute.
# T1 sequence (P11043 73-516 G173A/A264T): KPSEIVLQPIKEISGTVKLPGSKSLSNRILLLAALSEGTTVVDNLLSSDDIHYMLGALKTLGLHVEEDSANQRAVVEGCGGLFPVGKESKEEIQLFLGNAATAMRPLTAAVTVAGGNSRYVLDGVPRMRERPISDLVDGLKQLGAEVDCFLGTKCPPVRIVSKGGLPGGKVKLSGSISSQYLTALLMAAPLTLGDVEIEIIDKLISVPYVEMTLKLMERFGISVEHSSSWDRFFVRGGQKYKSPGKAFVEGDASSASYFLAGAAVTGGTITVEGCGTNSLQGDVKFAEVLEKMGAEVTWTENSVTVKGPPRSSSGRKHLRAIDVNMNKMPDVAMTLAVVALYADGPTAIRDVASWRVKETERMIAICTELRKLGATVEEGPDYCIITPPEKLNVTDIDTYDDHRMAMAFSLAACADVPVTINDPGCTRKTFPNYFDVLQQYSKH
smiles,measurement,value
"C=C(OP(=O)(O)O)C(=O)O [PEP, phosphoenolpyruvate]",Km for PEP,54 µM
